# Source: EP3390415B1, “(R)- AND (S)-1-(3-(3-N,N-DIMETHYLAMINOCARBONYL)PHENOXYL-4-NITROPHENYL)-1-ETHYL-N,N'-BIS (ETHYLENE)PHOSPHORAMIDATE, COMPOSITIONS AND METHODS FOR THEIR USE AND PREPARATION” (OBI PHARMA, INC., priority 2015, dated 2017)
# Read-outs that look alike come from different tables or passages of the source.
# Assays:
# Assay in all cases: In vitro human tumor cell line cytotoxicity assay
# Type in all cases: cell-based
# Vcap = settings: for IC50: Homo sapiens, VCaP
# TE-4 = settings: read-out: RelIC50
# OE 21 = settings: OE21, read-out: RelIC50
# TALL-1 = settings: read-out: RelIC50
# GR-ST = settings: read-out: RelIC50
# HepG2 = settings: for IC50: Homo sapiens
# EC-GI-10 = settings: read-out: RelIC50
# SNU-387 = settings: for IC50: Homo sapiens
# HEL = settings: read-out: RelIC50
# TE-6 = settings: read-out: RelIC50
# Jurkat = settings: read-out: RelIC50
# KYSE 270 = settings: read-out: RelIC50
# LIXC012 = settings: for IC50: Homo sapiens
# SUP-T1 = settings: read-out: RelIC50
# Protocol: (§1) TH 2870, TH 3423 and TH 3424 was also tested in different cancer cell lines using the materials and procedures as follows. 10* cell lysate buffer (cell signaling technology, Cat. No.9803); Protease Inhibitor Cocktail for Mammalian Tissues (Sigma, Cat. No.P8340); Phosphatase Inhibitor Cocktails for Serine/Threonine Phosphatases and L-Isozymes of Alkaline Phosphatases (Sigma, Cat. No.P0044); Phosphatase Inhibitor Cocktails for Tyrosine Protein Phosphatases, Acid and Alkaline Phosphatases (Sigma, Cat. No.P5726); BCA kit (Thermo, Cat. No.23225); Primary antibody, mouse monoclonal AKR1C3 antibody (clone NP6.G6.A6; Sigma-Aldrich); Primary antibody, α-tubulin (clone B-5-1-2; Sigma-Aldrich); Secondary antibody, Goat-anti-Mouse IgG HRP conjugated (A4416; Sigma-Aldrich) were used. Cells were passaged two generations in good condition and digested. The appropriate number of cells were inoculated in 6-cm cell culture dishes, and incubated at 37°C, 5% CO2 overnight. When the cells were grown to 80% density, the dish was removed from incubator. The medium was aspirated, washed twice with ice-cold PBS, and residual PBS was removed. An appropriate volume of ice-cold 1* cell lysate was added and incubated on ice for 10 minutes. Cell lysate was transferred to microfuge tubes chilled in ice, 4 °C, 12,000 rpm and centrifuged for 15 minutes. Supernatant was transferred into another microcentrifuge tube. Cell lysates were diluted by a 10* cell lysates, and add Protease Inhibitor Cocktail for Mammalian Tissues (Sigma, # P8340), Phosphatase Inhibitor Cocktails for Serine / Threonine Phosphatases and L-Isozymes of Alkaline Phosphatases, Phosphatase Inhibitor Cocktails for Tyrosine Protein Phosphatases, Acid and Alkaline Phosphatases. The BCA protein quantification kit for protein quantification was used with 1* cell lysate to dilute the cell lysate to the same concentration. Corresponding samples were added on 5* SDS-loading buffer, heated to 85 °C for 10 minutes, and centrifuged briefly. The samples were saved at -20 °C or used directly for protein electrophoresis. Those samples were electrophoresed according to standard practice, transferred to a membrane, the primary antibodies and then secondary antibody were applied according to the manufacturer's instructions. Odyssey infrared laser imaging system was used to scan signals.
# (§2) The results are shown below in Figs. 3 and 4 and listed in the following tables: Table: TH 2870, TH 3423 and TH 3424 sensitivity in liver, prostate, esophageal cancer and leukemia cell lines
# HL-60 = settings: read-out: RelIC50
# Protocol: as §1, §2
# PF-382 = settings: read-out: RelIC50
# Protocol: as §1, §2
# KYSE 510 = settings: read-out: RelIC50
# Protocol: as §1, §2
# CCRF-CEM = settings: read-out: RelIC50
# Protocol: as §1, §2
# P116 = settings: read-out: RelIC50
# Protocol: as §1, §2
# TE-11 = settings: read-out: RelIC50
# Protocol: as §1, §2
# Reh 3 = settings: read-out: RelIC50
# Protocol: as §1, §2
# TE-5 = settings: read-out: RelIC50
# Protocol: as §1, §2
# OE 33 = settings: OE33, read-out: RelIC50
# Protocol: as §1, §2
# ATN-1 = settings: read-out: RelIC50
# Protocol: as §1, §2
# THP-1_ = settings: read-out: RelIC50
# Protocol: as §1, §2
# Mono-Mac-6_ = settings: read-out: RelIC50
# Protocol: as §1, §2
# TE-15 = settings: read-out: RelIC50
# Protocol: as §1, §2
# COLO680N = settings: COLO-680N, read-out: RelIC50
# K-562 = settings: K562, read-out: RelIC50
# TE-14 = settings: read-out: RelIC50
# NOMO-1 = settings: read-out: RelIC50
# TE-8 = settings: read-out: RelIC50
# P30/OHK = settings: read-out: RelIC50
smiles,measurement,setting,value
"C[C@H](OP(=O)(N1CC1)N1CC1)c1ccc([N+](=O)[O-])c(Oc2cccc(C(=O)N(C)C)c2)c1 (single isomer, unassigned) [TH3424]",IC50,Vcap; read-out: AbsIC50,14.8 nM
same,IC50,Vcap; read-out: RelIC50,13.2 nM
same,Max Inhibition%,Vcap; Vcap,101.4%
same,Min Inhibition%,Vcap; Vcap,-13.2%
same,IC50,TE-4,9.9 nM
same,IC50,OE 21,5.2 nM
same,IC50,TALL-1,30 nM
same,IC50,GR-ST,99 nM
same,Max Inhibition%,HepG2,100.2%
same,Min Inhibition%,HepG2,3.4%
same,IC50,HepG2; read-out: AbsIC50,8.6 nM
same,IC50,HepG2; read-out: RelIC50,7.3 nM
same,IC50,EC-GI-10,13 nM
same,Max Inhibition%,SNU-387,99.3%
same,Min Inhibition%,SNU-387,-14.8%
same,IC50,SNU-387; read-out: AbsIC50,70.1 nM
same,IC50,SNU-387; read-out: RelIC50,58.7 nM
same,IC50,HEL,224 nM
same,IC50,TE-6,21 nM
same,IC50,Jurkat,40 nM
same,IC50,KYSE 270,270 nM
same,Max Inhibition%,LIXC012,82.8%
same,Min Inhibition%,LIXC012,4.1%
same,IC50,LIXC012; read-out: AbsIC50,17.5 nM
same,IC50,LIXC012; read-out: RelIC50,11.2 nM
same,IC50,SUP-T1,3 nM
same,IC50,HL-60,3 nM
same,IC50,PF-382,15 nM
same,IC50,KYSE 510,180 nM
same,IC50,CCRF-CEM,3.7 nM
same,IC50,P116,84 nM
same,IC50,TE-11,2.7 nM
same,IC50,Reh 3,3 nM
same,IC50,TE-5,33 nM
same,IC50,OE 33,84 nM
same,IC50,ATN-1,29.8 nM
same,IC50,THP-1_,> 1000 nM
same,IC50,Mono-Mac-6_,> 1000 nM
same,IC50,TE-15,2.9 nM
same,IC50,COLO680N,66 nM
same,IC50,K-562,> 1000 nM
same,IC50,TE-14,4.7 nM
same,IC50,NOMO-1,11 nM
same,IC50,TE-8,19 nM
same,IC50,P30/OHK,> 1000 nM
